Reference: patent US11135234B2, “Effective aminoglycoside antibiotic for multidrug-resistant bacteria” (MICROBIAL CHEMISTRY RESEARCH FOUNDATION, priority 2015, dated 2021)
Converted amounts (≈) assume the structure as drawn.

Assays:
[1] = test system: S. marcescens GN6944; assay: MIC, agar plate dilution method, S. marcescens GN6944; type: cell-based, Serratia marcescens; conditions: S. marcescens GN6944, GM-resistant; for MIC: Serratia marcescens, read-out: minimal inhibitory concentration (MIC)
In short: (§1)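 Agar plate dilution per Japan Society of Chemotherapy standard; read-out = MIC in μg/mL.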

[2] = test system: K. pneumoniae ATCC BAA-2146; assay: MIC, agar plate dilution method, K. pneumoniae ATCC BAA-2146; type: cell-based, Klebsiella pneumoniae; conditions: for MIC: Klebsiella pneumoniae, ATCCBAA2146, K. pneumoniae ATCC BAA-2146, NDM-producing strain, read-out: minimal inhibitory concentration (MIC); for minimal inhibitory concentration (MIC): K. pneumoniae ATCC BAA-2146, NDM-producing strain
In short: as §1

[3] = test system: K. pneumoniae ATCC BAA-1705; assay: MIC, agar plate dilution method, K. pneumoniae ATCC BAA-1705; type: cell-based, Klebsiella pneumoniae; conditions: for MIC: Klebsiella pneumoniae, ATCCBAA1705, K. pneumoniae ATCC BAA-1705, KPC-producing strain, read-out: minimal inhibitory concentration (MIC); for minimal inhibitory concentration (MIC): K. pneumoniae ATCC BAA-1705, KPC-producing strain
In short: as §1

[4] = test system: S. marcescens TH-0447; assay: MIC, agar plate dilution method, S. marcescens TH-0447; type: cell-based, Serratia marcescens; conditions: for MIC: Serratia marcescens, TH0447, S. marcescens TH-0447, AMK-resistant, read-out: minimal inhibitory concentration (MIC); for minimal inhibitory concentration (MIC): S. marcescens TH-0447, AMK-resistant
In short: as §1

[5] = test system: P. aeruginosa MSC01035; assay: MIC, agar plate dilution method, P. aeruginosa MSC01035; type: cell-based, Pseudomonas aeruginosa; conditions: P. aeruginosa MSC01035, ABK-resistant; for MIC: Pseudomonas aeruginosa, read-out: minimal inhibitory concentration (MIC)
In short: as §1

[6] = test system: S. aureus RN4220; assay: MIC, agar plate dilution method, S. aureus RN4220; type: cell-based, Staphylococcus aureus; conditions: for MIC: Staphylococcus aureus, RN4220, S. aureus RN4220, Sensitive bacterium, read-out: minimal inhibitory concentration (MIC); for minimal inhibitory concentration (MIC): S. aureus RN4220, Sensitive bacterium
In short: as §1

[7] = test system: S. aureus RN4220/pMS520; assay: MIC, agar plate dilution method, S. aureus RN4220/pMS520; type: cell-based, Staphylococcus aureus; conditions: for MIC: Staphylococcus aureus, MRSA, read-out: minimal inhibitory concentration (MIC), S. aureus RN4220/pMS520, MRSA; for minimal inhibitory concentration (MIC): S. aureus RN4220/pMS520, MRSA
In short: as §1

[8] = test system: S. aureus MF490; assay: MIC, agar plate dilution method, S. aureus MF490; type: cell-based, Staphylococcus aureus; conditions: for MIC: Staphylococcus aureus, MRSA, read-out: minimal inhibitory concentration (MIC); for minimal inhibitory concentration (MIC): S. aureus MF490, MRSA
In short: as §1

[9] = test system: P. aeruginosa PAO1; assay: MIC, agar plate dilution method, P. aeruginosa PAO1; type: cell-based, Pseudomonas aeruginosa; conditions: for MIC: Pseudomonas aeruginosa, PAO1, P. aeruginosa PAO1, Sensitive bacterium, read-out: minimal inhibitory concentration (MIC); for minimal inhibitory concentration (MIC): P. aeruginosa PAO1, Sensitive bacterium
In short: as §1

[10] = test system: E. faecium ATCC19434; assay: MIC, agar plate dilution method, E. faecium ATCC19434; type: cell-based, Enterococcus faecium; conditions: for MIC: Enterococcus faecium, ATCC19434, E. faecium ATCC19434, read-out: minimal inhibitory concentration (MIC); for minimal inhibitory concentration (MIC): E. faecium ATCC19434
In short: as §1

[11] = test system: A. baumannii ATCC BAA-1710; assay: MIC, agar plate dilution method, A. baumannii ATCC BAA-1710; type: cell-based, Acinetobacter baumannii; conditions: for MIC: Acinetobacter baumannii, ATCCBAA1710, A. baumannii ATCC BAA-1710, MDRA, read-out: minimal inhibitory concentration (MIC); for minimal inhibitory concentration (MIC): A. baumannii ATCC BAA-1710, MDRA
In short: as §1

[12] = test system: E. coli JM109/pMW218; assay: MIC, agar plate dilution method, E. coli JM109/pMW218; type: cell-based, Escherichia coli; conditions: for MIC: Escherichia coli, JM109/PMW218, E. coli JM109/pMW218, Sensitive bacterium, read-out: minimal inhibitory concentration (MIC); for minimal inhibitory concentration (MIC): E. coli JM109/pMW218, Sensitive bacterium
In short: as §1

[13] = test system: P. aeruginosa PAO1/GN315; assay: MIC, agar plate dilution method, P. aeruginosa PAO1/GN315; type: cell-based, Pseudomonas aeruginosa; conditions: for MIC: Pseudomonas aeruginosa, read-out: minimal inhibitory concentration (MIC), P. aeruginosa PAO1/GN315, AMK-resistant; for minimal inhibitory concentration (MIC): P. aeruginosa PAO1/GN315, AMK-resistant
In short: as §1

[14] = test system: P. aeruginosa MSC17707; assay: MIC, agar plate dilution method, P. aeruginosa MSC17707; type: cell-based, Pseudomonas aeruginosa; conditions: for MIC: Pseudomonas aeruginosa, MSC17707, P. aeruginosa MSC17707, AMK-resistant, read-out: minimal inhibitory concentration (MIC); for minimal inhibitory concentration (MIC): P. aeruginosa MSC17707, AMK-resistant
In short: as §1

SMILES | MIC [1] [µg/mL] | MIC [2] [µg/mL] | MIC [3] [µg/mL] | MIC [4] [µg/mL] | MIC [5] [µg/mL] | MIC [6] [µg/mL] | MIC [7] [µg/mL] | MIC [8] [µg/mL] | MIC [9] [µg/mL] | MIC [10] [µg/mL] | MIC [11] [µg/mL] | MIC [12] [µg/mL] | MIC [13] [µg/mL] | MIC [14] [µg/mL] | minimal inhibitory concentration (MIC) [1] [µg/mL] | minimal inhibitory concentration (MIC) [2] [µg/mL] | minimal inhibitory concentration (MIC) [3] [µg/mL] | minimal inhibitory concentration (MIC) [4] [µg/mL] | minimal inhibitory concentration (MIC) [5] [µg/mL] | minimal inhibitory concentration (MIC) [6] [µg/mL] | other results
CNC1C(O[C@H]2OC(CF)[C@@H](N)[C@H](O)C2O)O[C@H]2CC(N)[C@@H](O[C@@H]3C(N)C[C@@H](N)C(O)[C@H]3O)OC2C1O (stereo partly drawn) [Compound J4, 6″-deoxy-6″-fluoroapramycin] | 16 (≈ 29.5 µM) | 2 (≈ 3.69 µM) | 2 (≈ 3.69 µM) | 16 (≈ 29.5 µM) | 16 (≈ 29.5 µM) | 8 (≈ 14.8 µM) | 4 (≈ 7.39 µM) | 16 (≈ 29.5 µM) | 8 (≈ 14.8 µM) | 32 (≈ 59.1 µM) | 32 (≈ 59.1 µM) | 2 (≈ 3.69 µM) | 8 (≈ 14.8 µM) | 16 (≈ 29.5 µM) | – | – | – | – | – | – | –
CNC1C(O[C@H]2OC(CO)[C@@H](NC)[C@H](O)C2O)O[C@H]2CC(N)[C@@H](O[C@H]3CC(O)[C@H](N)CC3N)OC2C1O (stereo partly drawn) [Compound S1-a, 5-deoxy-4″-N-methylapramycin] | 4 (≈ 7.44 µM) | 1 (≈ 1.86 µM) | 1 (≈ 1.86 µM) | 8 (≈ 14.9 µM) | 4 (≈ 7.44 µM) | 2 (≈ 3.72 µM) | 2 (≈ 3.72 µM) | 8 (≈ 14.9 µM) | 4 (≈ 7.44 µM) | 32 (≈ 59.5 µM) | 8 (≈ 14.9 µM) | 1 (≈ 1.86 µM) | 4 (≈ 7.44 µM) | 4 (≈ 7.44 µM) | – | – | – | – | – | – | –
CNC1C(CO)OC(OC2OC3CC(N)C(OC4C(N)CC(N)CC4O)OC3C(O)C2NC)C(O)C1O (stereo not drawn) [Compound S1-l, 6-deoxy-5-epi-4″-N-methylapramycin] | – | – | – | – | – | – | – | – | – | – | – | – | – | – | 2 (≈ 3.72 µM) | 0.5 (≈ 0.93 µM) | 1 (≈ 1.86 µM) | 4 (≈ 7.44 µM) | 4 (≈ 7.44 µM) | 2 (≈ 3.72 µM) | minimal inhibitory concentration (MIC) [7]: 1 µg/mL (≈ 1.86 µM); minimal inhibitory concentration (MIC) [8]: 8 µg/mL (≈ 14.9 µM); minimal inhibitory concentration (MIC) [9]: 4 µg/mL (≈ 7.44 µM); minimal inhibitory concentration (MIC) [10]: 16 µg/mL (≈ 29.8 µM); minimal inhibitory concentration (MIC) [11]: 4 µg/mL (≈ 7.44 µM); minimal inhibitory concentration (MIC) [12]: 0.5 µg/mL (≈ 0.93 µM); minimal inhibitory concentration (MIC) [13]: 4 µg/mL (≈ 7.44 µM); minimal inhibitory concentration (MIC) [14]: 4 µg/mL (≈ 7.44 µM)
CNC1C(O[C@H]2OC(CO)[C@@H](NC(CN)CN)[C@H](O)C2O)O[C@H]2CC(N)[C@@H](O[C@H]3CC[C@H](N)CC3N)OC2C1O (stereo partly drawn) [Compound T2-d, 4″-N-(1,3-diaminopropan-2-yl)-5,6-dideoxyapramycin] | 8 (≈ 13.8 µM) | 2 (≈ 3.45 µM) | 2 (≈ 3.45 µM) | 8 (≈ 13.8 µM) | 8 (≈ 13.8 µM) | 2 (≈ 3.45 µM) | 1 (≈ 1.73 µM) | 4 (≈ 6.9 µM) | 4 (≈ 6.9 µM) | 4 (≈ 6.9 µM) | 8 (≈ 13.8 µM) | 1 (≈ 1.73 µM) | 4 (≈ 6.9 µM) | 8 (≈ 13.8 µM) | – | – | – | – | – | – | –
CNC1C(OC2OC(CO)C(N)C(O)C2O)OC2CC(N)C(OC3C(N)CC(N)C(O)C3O)OC2C1O (stereo not drawn) [Compound B5, 5-epiapramycin] | – | – | – | – | – | – | – | – | – | – | – | – | – | – | 8 (≈ 14.8 µM) | 1 (≈ 1.85 µM) | 1 (≈ 1.85 µM) | 8 (≈ 14.8 µM) | 4 (≈ 7.41 µM) | 4 (≈ 7.41 µM) | minimal inhibitory concentration (MIC) [7]: 2 µg/mL (≈ 3.71 µM); minimal inhibitory concentration (MIC) [8]: 8 µg/mL (≈ 14.8 µM); minimal inhibitory concentration (MIC) [9]: 4 µg/mL (≈ 7.41 µM); minimal inhibitory concentration (MIC) [10]: 16 µg/mL (≈ 29.7 µM); minimal inhibitory concentration (MIC) [11]: 8 µg/mL (≈ 14.8 µM); minimal inhibitory concentration (MIC) [12]: 1 µg/mL (≈ 1.85 µM); minimal inhibitory concentration (MIC) [13]: 4 µg/mL (≈ 7.41 µM); minimal inhibitory concentration (MIC) [14]: 4 µg/mL (≈ 7.41 µM)
CNC1C(O[C@H]2OC(CO)[C@@H](NCCCN)[C@H](O)C2O)O[C@H]2CC(N)[C@@H](O[C@H]3CC[C@H](N)CC3N)OC2C1O (stereo partly drawn) [Compound T2-c, 4″-N-(3-aminopropyl)-5,6-dideoxyapramycin] | 4 (≈ 7.08 µM) | 1 (≈ 1.77 µM) | 1 (≈ 1.77 µM) | 8 (≈ 14.2 µM) | 8 (≈ 14.2 µM) | 2 (≈ 3.54 µM) | 2 (≈ 3.54 µM) | 8 (≈ 14.2 µM) | 4 (≈ 7.08 µM) | 8 (≈ 14.2 µM) | 4 (≈ 7.08 µM) | 1 (≈ 1.77 µM) | 4 (≈ 7.08 µM) | 4 (≈ 7.08 µM) | – | – | – | – | – | – | –
